The values below come from ChEMBL document CHEMBL4680235, “Structure-based discovery of novel 4-(2-fluorophenoxy)quinoline derivatives as c-Met inhibitors using isocyanide-involved multicomponent reactions” (Eur J Med Chem, 2020).

Assay [1] has as its system HT-29. As to the kind of experiment: Antiproliferative activity against human HT-29 cells assessed as reduction in cell viability measured after 72 hrs by MTT assay. The note with it: HT-29, 72 h.
For assay [2], the system named is NCI-H460. The experiment in a line: Antiproliferative activity against human NCI-H460 cells assessed as reduction in cell viability measured after 72 hrs by MTT assay. The note with it: NCI-H460, 72 h. Background: Formazan colour is commonly taken as a measure of viable cells.
Assay [3] concerns MDA-MB-231. The experiment in a line: Antiproliferative activity against human MDA-MB-231 cells assessed as reduction in cell viability measured after 72 hrs by MTT assay. The note with it: MDA-MB-231, 72 h.
Assay [4] has as its system MKN-45. As to the kind of experiment: Antiproliferative activity against human MKN-45 cells assessed as reduction in cell viability measured after 72 hrs by MTT assay. The note with it: MKN-45, 72 h.

As usually defined, the pIC50 is the negative decadic logarithm of the IC50, by convention in mol/L.

SMILES strings stand for the structures. pIC50: −log10 of the molar value.

On to `COc1cc2nccc(Oc3ccc(NC(=O)C(OC(=O)c4ccc(Cl)c(Cl)c4)C(C)(C)C)cc3F)c2cc1OC` (centres undefined), for which the pIC50 is 6.05 in assay [1], 6.11 in assay [2], 5.81 in assay [3] and 5.95 in assay [4].
For the compound `COc1cc2nccc(Oc3ccc(NC(=O)C(N(C(=O)c4ccc(F)cc4)c4ccc(F)cc4)C(C)(C)C)cc3F)c2cc1OC` (centres undefined), the pIC50 was 4.99 in assay [1], 5.07 in assay [2], 4.83 in assay [3] and 4.91 in assay [4].
Turning to `COc1cc2nccc(Oc3ccc(NC(=O)C(OC(=O)c4ccccc4)C(C)(C)C)cc3F)c2cc1OC` (centres undefined), the pIC50 is 6.35 in assay [1], 6.40 in assay [2], 6.19 in assay [3] and 6.25 in assay [4].
As for `COc1cc2nccc(Oc3ccc(NC(=O)C(NC(=O)c4ccc(F)cc4)C(C)(C)C)cc3F)c2cc1OC` (centres undefined), the pIC50 in assay [1] was 6.36; in assay [2], 6.42; in assay [3], 6.02; in assay [4], 6.19.
For the compound `COc1ccc(C(=O)OC(C(=O)Nc2ccc(Oc3ccnc4cc(OC)c(OC)cc34)c(F)c2)C(C)(C)C)cc1` (centres undefined), the pIC50 is 5.81 in assay [1], 5.90 in assay [2], 5.59 in assay [3] and 5.73 in assay [4].
The corresponding values for `COc1cc2nccc(Oc3ccc(NC(=O)C(OC(=O)c4cccc(F)c4)C(C)(C)C)cc3F)c2cc1OC` (centres undefined) are 6.52, 6.59, 6.31 and 6.27.
Take `COc1cc2nccc(Oc3ccc(NC(=O)C(OC(=O)c4ccc5ccccc5c4)C(C)(C)C)cc3F)c2cc1OC` (centres undefined): the pIC50 in assay [1] was 5.36; in assay [2] it was 5.48; in assay [3], 5.17.
For the compound `COc1cc2nccc(Oc3ccc(NC(=O)C(C)OC(=O)c4ccc5ccccc5c4)cc3F)c2cc1OC` (centres undefined), the pIC50 in assay [1] was 4.94; in assay [2], 5.03; in assay [3], 4.88; in assay [4], 4.81.
Regarding `COc1cc2nccc(Oc3ccc(NC(=O)C(OC(=O)c4cccc(Cl)c4)C(C)(C)C)cc3F)c2cc1OC` (centres undefined), the pIC50 in assay [1] is 6.41; in assay [2] it was 6.51; in assay [3] it was 6.07; in assay [4] it was 6.22.
Consider `COc1cc2nccc(Oc3ccc(NC(=O)C(OC(=O)c4ccc(Br)cc4)C(C)(C)C)cc3F)c2cc1OC` (centres undefined), for which the pIC50 in assay [1] was 6.25; in assay [2], 6.32; in assay [3] it was 6.05; in assay [4] it was 6.12.
Turning to `COc1cc2nccc(Oc3ccc(NC(=O)C(OC(=O)c4ccccc4)c4ccccc4)cc3F)c2cc1OC` (centres undefined), the pIC50 in assay [1] is 4.59; in assay [2], 4.65.
Consider `COc1cc2nccc(Oc3ccc(NC(=O)C(OC(=O)c4cc(OC)c(OC)c(OC)c4)C(C)(C)C)cc3F)c2cc1OC` (centres undefined), for which the pIC50 is 5.52 in assay [1], 5.57 in assay [2], 5.31 in assay [3] and 5.41 in assay [4].
Turning to `COc1ccc(N(C(=O)c2ccc(F)cc2)C(C(=O)Nc2ccc(Oc3ccnc4cc(OC)c(OC)cc34)c(F)c2)C(C)(C)C)cc1OC` (centres undefined), the pIC50 was 5.21 in assay [1], 5.19 in assay [2], 5.05 in assay [3] and 5.12 in assay [4].
In the case of `COc1cc2nccc(Oc3ccc(NC(=O)C(C)OC(=O)C4CCCC4)cc3F)c2cc1OC` (centres undefined), the pIC50 was 4.61 in assay [1], 4.82 in assay [2] and 4.55 in assay [4].
Take `COc1cc2nccc(Oc3ccc(NC(=O)C(OC(=O)c4ccc(C(F)(F)F)cc4)C(C)(C)C)cc3F)c2cc1OC` (centres undefined): the pIC50 in assay [1] was 5.67; in assay [2], 5.74; in assay [3], 5.45; in assay [4], 5.54.
For the compound `COc1cc2nccc(Oc3ccc(NC(=O)C(OC(=O)c4ccco4)C(C)(C)C)cc3F)c2cc1OC` (centres undefined), the pIC50 in assay [1] was 5.53; in assay [2], 5.57; in assay [3] it was 5.45.
